{
  "source": "ChEMBL document CHEMBL2401706",
  "about": "“An atom economic synthesis and AChE inhibitory activity of novel dispiro 7-aryltetrahydro-1H-pyrrolo[1,2-c][1,3]thiazole and 4-aryloctahydroindolizine N-methylpiperidin-4-one hybrid heterocycles” (Eur J Med Chem, 2013)",
  "data": [
    {"target": "Acetylcholinesterase (Electrophorus electricus, UniProt O42275)", "sequence (O42275 whole entry)": "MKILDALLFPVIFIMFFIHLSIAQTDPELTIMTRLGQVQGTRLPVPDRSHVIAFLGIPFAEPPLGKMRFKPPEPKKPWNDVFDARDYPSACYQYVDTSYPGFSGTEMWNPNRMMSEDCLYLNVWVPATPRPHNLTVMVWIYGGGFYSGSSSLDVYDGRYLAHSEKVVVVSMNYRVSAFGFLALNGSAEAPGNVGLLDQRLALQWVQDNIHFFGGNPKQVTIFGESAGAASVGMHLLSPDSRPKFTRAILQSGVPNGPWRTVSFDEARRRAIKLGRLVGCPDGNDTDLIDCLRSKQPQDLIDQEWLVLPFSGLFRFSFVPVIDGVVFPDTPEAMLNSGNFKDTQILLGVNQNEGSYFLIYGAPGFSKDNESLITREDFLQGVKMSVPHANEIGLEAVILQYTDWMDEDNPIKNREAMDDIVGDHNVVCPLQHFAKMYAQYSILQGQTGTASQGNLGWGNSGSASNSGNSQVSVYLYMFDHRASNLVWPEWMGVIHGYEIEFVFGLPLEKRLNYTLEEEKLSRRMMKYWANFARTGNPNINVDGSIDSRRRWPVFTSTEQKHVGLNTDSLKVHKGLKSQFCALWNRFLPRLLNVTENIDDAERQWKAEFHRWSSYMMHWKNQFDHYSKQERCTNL", "experiment": "Inhibition of electric eel AChE after 30 mins by Ellman's method", "units": {"IC50": "µM"}, "values": [
      {"smiles": "CN1C/C(=C\\c2ccccc2F)C(=O)[C@]2(C1)[C@@H](c1ccccc1F)[C@@H]1CCCCN1[C@@]21C(=O)c2cccc3cccc1c23", "IC50": 34.2},
      {"smiles": "COc1ccccc1/C=C1\\CN(C)C[C@@]2(C1=O)[C@@H](c1ccccc1OC)[C@@H]1CCCCN1[C@@]21C(=O)c2cccc3cccc1c23", "IC50": 11.6},
      {"smiles": "CN1C/C(=C\\c2ccccc2Br)C(=O)[C@]2(C1)[C@@H](c1ccccc1Br)[C@@H]1CCCCN1[C@@]21C(=O)c2cccc3cccc1c23", "IC50": 38.3},
      {"smiles": "CN1C/C(=C\\c2cccc(F)c2)C(=O)[C@]2(C1)[C@@H](c1cccc(F)c1)[C@@H]1CCCCN1[C@@]21C(=O)c2cccc3cccc1c23", "IC50": 32.6},
      {"smiles": "CN1C/C(=C\\c2cccc([N+](=O)[O-])c2)C(=O)[C@]2(C1)[C@@H](c1cccc([N+](=O)[O-])c1)[C@@H]1CCCCN1[C@@]21C(=O)c2cccc3cccc1c23", "IC50": 25.1},
      {"smiles": "CN1C/C(=C\\c2cccc(Cl)c2Cl)C(=O)[C@]2(C1)[C@@H](c1cccc(Cl)c1Cl)[C@@H]1CCCCN1[C@@]21C(=O)c2cccc3cccc1c23", "IC50": 24.2},
      {"smiles": "CN1C/C(=C\\c2ccc(Cl)cc2Cl)C(=O)[C@]2(C1)[C@@H](c1ccc(Cl)cc1Cl)[C@@H]1CCCCN1[C@@]21C(=O)c2cccc3cccc1c23", "IC50": 17.3},
      {"smiles": "CN1C/C(=C\\c2cccc3ccccc23)C(=O)[C@]2(C1)[C@@H](c1cccc3ccccc13)[C@@H]1CCCCN1[C@@]21C(=O)c2cccc3cccc1c23", "IC50": 3.34},
      {"smiles": "CN1C/C(=C\\c2cccc3ccccc23)C(=O)[C@]2(C1)[C@@H](c1cccc3ccccc13)[C@@H]1CSCN1[C@@]21C(=O)c2cccc3cccc1c23", "IC50": 9.48},
      {"smiles": "CN1C/C(=C\\c2ccccc2)C(=O)[C@]2(C1)[C@@H](c1ccccc1)[C@@H]1CCCCN1[C@@]21C(=O)c2cccc3cccc1c23", "IC50": 18.3},
      {"smiles": "CN1C/C(=C\\c2ccc(Cl)cc2)C(=O)[C@]2(C1)[C@@H](c1ccc(Cl)cc1)[C@@H]1CCCCN1[C@@]21C(=O)c2cccc3cccc1c23", "IC50": 11.6},
      {"smiles": "Cc1ccc(/C=C2\\CN(C)C[C@@]3(C2=O)[C@@H](c2ccc(C)cc2)[C@@H]2CCCCN2[C@@]32C(=O)c3cccc4cccc2c34)cc1", "IC50": 2.24},
      {"smiles": "COc1ccc(/C=C2\\CN(C)C[C@@]3(C2=O)[C@@H](c2ccc(OC)cc2)[C@@H]2CCCCN2[C@@]32C(=O)c3cccc4cccc2c34)cc1", "IC50": 22.3},
      {"smiles": "CN1C/C(=C\\c2ccc(F)cc2)C(=O)[C@]2(C1)[C@@H](c1ccc(F)cc1)[C@@H]1CCCCN1[C@@]21C(=O)c2cccc3cccc1c23", "IC50": 12.6},
      {"smiles": "CN1C/C(=C\\c2ccc(Br)cc2)C(=O)[C@]2(C1)[C@@H](c1ccc(Br)cc1)[C@@H]1CCCCN1[C@@]21C(=O)c2cccc3cccc1c23", "IC50": 14.1},
      {"smiles": "CN1C/C(=C\\c2ccc([N+](=O)[O-])cc2)C(=O)[C@]2(C1)[C@@H](c1ccc([N+](=O)[O-])cc1)[C@@H]1CCCCN1[C@@]21C(=O)c2cccc3cccc1c23", "IC50": 9.16},
      {"smiles": "CN1C/C(=C\\c2ccccc2Cl)C(=O)[C@]2(C1)[C@@H](c1ccccc1Cl)[C@@H]1CCCCN1[C@@]21C(=O)c2cccc3cccc1c23", "IC50": 21.3},
      {"smiles": "Cc1ccccc1/C=C1\\CN(C)C[C@@]2(C1=O)[C@@H](c1ccccc1C)[C@@H]1CCCCN1[C@@]21C(=O)c2cccc3cccc1c23", "IC50": 3.86},
      {"smiles": "CN1C/C(=C\\c2ccc(F)cc2)C(=O)[C@]2(C1)[C@@H](c1ccc(F)cc1)[C@@H]1CSCN1[C@@]21C(=O)c2cccc3cccc1c23", "IC50": 15.8},
      {"smiles": "CN1C/C(=C\\c2ccc(Br)cc2)C(=O)[C@]2(C1)[C@@H](c1ccc(Br)cc1)[C@@H]1CSCN1[C@@]21C(=O)c2cccc3cccc1c23", "IC50": 20.3},
      {"smiles": "CN1C/C(=C\\c2ccc([N+](=O)[O-])cc2)C(=O)[C@]2(C1)[C@@H](c1ccc([N+](=O)[O-])cc1)[C@@H]1CSCN1[C@@]21C(=O)c2cccc3cccc1c23", "IC50": 4.56},
      {"smiles": "CN1C/C(=C\\c2ccccc2Cl)C(=O)[C@]2(C1)[C@@H](c1ccccc1Cl)[C@@H]1CSCN1[C@@]21C(=O)c2cccc3cccc1c23", "IC50": 12.2},
      {"smiles": "Cc1ccccc1/C=C1\\CN(C)C[C@@]2(C1=O)[C@@H](c1ccccc1C)[C@@H]1CSCN1[C@@]21C(=O)c2cccc3cccc1c23", "IC50": 6.28},
      {"smiles": "CN1C/C(=C\\c2ccccc2F)C(=O)[C@]2(C1)[C@@H](c1ccccc1F)[C@@H]1CSCN1[C@@]21C(=O)c2cccc3cccc1c23", "IC50": 12.6},
      {"smiles": "CN1C/C(=C\\c2ccccc2Br)C(=O)[C@]2(C1)[C@@H](c1ccccc1Br)[C@@H]1CSCN1[C@@]21C(=O)c2cccc3cccc1c23", "IC50": 10.1},
      {"smiles": "CN1C/C(=C\\c2cccc(F)c2)C(=O)[C@]2(C1)[C@@H](c1cccc(F)c1)[C@@H]1CSCN1[C@@]21C(=O)c2cccc3cccc1c23", "IC50": 11.2},
      {"smiles": "CN1C/C(=C\\c2cccc([N+](=O)[O-])c2)C(=O)[C@]2(C1)[C@@H](c1cccc([N+](=O)[O-])c1)[C@@H]1CSCN1[C@@]21C(=O)c2cccc3cccc1c23", "IC50": 8.1},
      {"smiles": "CN1C/C(=C\\c2cccc(Cl)c2Cl)C(=O)[C@]2(C1)[C@@H](c1cccc(Cl)c1Cl)[C@@H]1CSCN1[C@@]21C(=O)c2cccc3cccc1c23", "IC50": 19.1},
      {"smiles": "CN1C/C(=C\\c2ccc(Cl)cc2Cl)C(=O)[C@]2(C1)[C@@H](c1ccc(Cl)cc1Cl)[C@@H]1CSCN1[C@@]21C(=O)c2cccc3cccc1c23", "IC50": 23.2},
      {"smiles": "CN1C/C(=C\\c2ccccc2)C(=O)[C@]2(C1)[C@@H](c1ccccc1)[C@@H]1CSCN1[C@@]21C(=O)c2cccc3cccc1c23", "IC50": 16.5},
      {"smiles": "CN1C/C(=C\\c2ccc(Cl)cc2)C(=O)[C@]2(C1)[C@@H](c1ccc(Cl)cc1)[C@@H]1CSCN1[C@@]21C(=O)c2cccc3cccc1c23", "IC50": 11.1},
      {"smiles": "Cc1ccc(/C=C2\\CN(C)C[C@@]3(C2=O)[C@@H](c2ccc(C)cc2)[C@@H]2CSCN2[C@@]32C(=O)c3cccc4cccc2c34)cc1", "IC50": 1.86},
      {"smiles": "COc1ccc(/C=C2\\CN(C)C[C@@]3(C2=O)[C@@H](c2ccc(OC)cc2)[C@@H]2CSCN2[C@@]32C(=O)c3cccc4cccc2c34)cc1", "IC50": 12.3}
    ]}
  ]
}
